Where two headings read alike, the source gives them in different places. One block for each molecule: values may come before it.
Legend:
[1] = biological target: NavMs E227D mutant channel (Magnetococcus marinus, UniProt A0L5S6, E227D); assay: cell-based
hNav1.2 = hNav1.2 (Homo sapiens, UniProt Q99250); assay: Whole-cell patch-clamp INa inhibition, hNav1.2 in HEK293 cells; assay type: cell-based
NavMs [2] = biological target: T1, NavMs (Magnetococcus marinus, UniProt A0L5S6); assay: cell-based
[3] = system: endogenous sodium currents of MDA-MB-231 cells (nNav1.5, Nav1.7); assay: Voltage clamp of endogenous sodium currents in MDA-MB-231 cells; assay type: cell-based; details: Homo sapiens, MDA-MB-231, read-out: Potency of sodium current inhibition (IC50), MDA-MD-231 cells
[4] = biological target: NavMs D220E mutant channel (Magnetococcus marinus, UniProt A0L5S6, D220E); assay: cell-based; assay type: cell-based
NavMs [5] = biological target: T1, NavMs; assay: Mechanism and kinetics of NavMs INa inhibition; assay type: cell-based
[6] = cited from earlier work
ER = details: cited from earlier work
[7] = biological target: NavMs F208L mutant (NavMsL) (Magnetococcus marinus) (UniProt A0L5S6); assay: crystal structure

Sequence of hNav1.2 (Q99250 whole entry): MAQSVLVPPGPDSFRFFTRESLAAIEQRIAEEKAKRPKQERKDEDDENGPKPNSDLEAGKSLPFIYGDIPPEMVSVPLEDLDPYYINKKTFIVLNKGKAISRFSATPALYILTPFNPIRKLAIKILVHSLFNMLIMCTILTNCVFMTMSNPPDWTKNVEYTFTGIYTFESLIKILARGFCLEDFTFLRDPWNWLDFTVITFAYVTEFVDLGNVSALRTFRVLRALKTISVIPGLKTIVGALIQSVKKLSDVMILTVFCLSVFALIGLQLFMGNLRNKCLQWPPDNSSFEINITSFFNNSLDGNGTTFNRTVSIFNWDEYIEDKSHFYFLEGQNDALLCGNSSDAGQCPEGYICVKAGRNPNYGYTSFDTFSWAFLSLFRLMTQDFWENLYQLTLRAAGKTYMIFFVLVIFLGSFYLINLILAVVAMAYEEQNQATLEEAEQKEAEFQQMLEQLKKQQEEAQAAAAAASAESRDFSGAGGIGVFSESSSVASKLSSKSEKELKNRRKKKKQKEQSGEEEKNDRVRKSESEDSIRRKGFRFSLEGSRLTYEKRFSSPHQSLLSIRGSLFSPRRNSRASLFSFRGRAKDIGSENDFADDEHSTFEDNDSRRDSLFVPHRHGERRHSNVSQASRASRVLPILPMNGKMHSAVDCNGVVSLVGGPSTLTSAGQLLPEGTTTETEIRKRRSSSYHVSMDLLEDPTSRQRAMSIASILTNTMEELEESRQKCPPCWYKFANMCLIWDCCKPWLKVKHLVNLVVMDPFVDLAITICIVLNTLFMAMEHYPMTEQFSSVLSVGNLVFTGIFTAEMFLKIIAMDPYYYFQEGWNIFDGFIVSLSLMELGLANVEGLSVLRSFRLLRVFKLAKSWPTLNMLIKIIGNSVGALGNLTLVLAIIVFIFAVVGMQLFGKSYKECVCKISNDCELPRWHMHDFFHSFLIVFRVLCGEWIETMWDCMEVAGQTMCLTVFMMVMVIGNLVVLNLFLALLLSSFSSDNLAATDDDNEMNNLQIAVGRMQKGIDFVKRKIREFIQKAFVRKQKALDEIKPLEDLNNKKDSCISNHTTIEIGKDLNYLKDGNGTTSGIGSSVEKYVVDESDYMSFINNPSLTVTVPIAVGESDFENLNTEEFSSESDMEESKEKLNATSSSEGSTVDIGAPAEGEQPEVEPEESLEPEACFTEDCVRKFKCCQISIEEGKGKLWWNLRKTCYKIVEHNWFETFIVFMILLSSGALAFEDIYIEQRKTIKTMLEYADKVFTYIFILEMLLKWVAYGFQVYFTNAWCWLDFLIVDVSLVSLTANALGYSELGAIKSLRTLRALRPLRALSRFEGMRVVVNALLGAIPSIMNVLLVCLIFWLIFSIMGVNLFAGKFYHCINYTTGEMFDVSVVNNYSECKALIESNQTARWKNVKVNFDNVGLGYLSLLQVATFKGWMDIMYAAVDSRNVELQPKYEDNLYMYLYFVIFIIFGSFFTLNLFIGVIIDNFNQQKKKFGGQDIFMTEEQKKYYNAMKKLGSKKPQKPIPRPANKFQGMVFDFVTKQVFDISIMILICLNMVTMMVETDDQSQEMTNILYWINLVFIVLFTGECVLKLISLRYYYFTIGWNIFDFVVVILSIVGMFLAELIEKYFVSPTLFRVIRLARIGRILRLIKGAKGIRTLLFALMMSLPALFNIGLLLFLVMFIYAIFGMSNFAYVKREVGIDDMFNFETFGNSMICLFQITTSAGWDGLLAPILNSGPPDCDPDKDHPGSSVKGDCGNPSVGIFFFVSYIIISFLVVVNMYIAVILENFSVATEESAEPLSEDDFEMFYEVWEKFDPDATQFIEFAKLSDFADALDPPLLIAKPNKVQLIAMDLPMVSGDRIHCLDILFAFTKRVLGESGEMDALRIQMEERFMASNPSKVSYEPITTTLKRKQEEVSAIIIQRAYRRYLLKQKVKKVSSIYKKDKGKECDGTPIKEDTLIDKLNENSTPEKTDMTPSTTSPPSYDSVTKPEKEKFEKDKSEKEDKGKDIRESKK

Molecule: CC/C(=C(\c1ccc(O)cc1)c1ccc(OCCN(C)C)cc1)c1ccccc1 [4OH-Tam, 4-hydroxytamoxifen]
IC50 [1]: 2.8 ± 0.16 µM | Average slope of the Hill fit, E227D, HEK cells ([1]; value in parentheses, error SD): 1.13 ± 0.1 | IC50 (hNav1.2): 2.1 ± 0.14 µM | Average slope of the Hill fit, NaV1.2, HEK cells (hNav1.2; value in parentheses, error SD): 0.96 ± 0.1 | IC50 (NavMs [2]): 0.297 ± 0.075 µM | Average slope of the Hill fit, NavMs, HEK cells (NavMs [2]; value in parentheses, error SD): 1.14 ± 0.1 | IC50 [3]: 0.89 µM | IC50 [4]: 3.6 ± 0.14 µM | Loss in free energy of binding (ΔG°) [4]: 1.5 kcal/mol | Average slope of the Hill fit, D220E, HEK cells ([4]; value in parentheses, error SD): 1.17 ± 0.1 | Delay of rate of recovery from inactivation (τrec) following drug treatment (NavMs [5]): ~10 fold | INa inhibition with 7 ms vs 150 ms depolarization trains, times less (NavMs [5]): 3.4 times | Kinetics of INa inhibition (τon), times slower than cadmium (NavMs [5]): 16 times | Shift of voltage dependence of activation and inactivation (NavMs [5]): no significant shifts in either parameter | Potency in vivo as an anti-estrogen relative to tamoxifen [6]: 30- to 100 fold

Average slope of the Hill fit, NaV1.2, HEK cells (hNav1.2; value in parentheses, error SD): 0.94 ± 0.1 | Average slope of the Hill fit, NavMs, HEK cells (NavMs [2]; value in parentheses, error SD): 1.15 ± 0.1
Molecule: CC/C(=C(/c1ccc(O)cc1)c1ccc(OCCN(C)C)cc1)c1ccccc1.Cl [E-4OH-Tam, E-4-Hydroxytamoxifen hydrochloride]

IC50 (hNav1.2): 3.1 ± 0.13 µM | Average slope of the Hill fit, NaV1.2, HEK cells (hNav1.2; value in parentheses, error SD): 0.97 ± 0.1 | IC50 (NavMs [2]): 0.328 ± 0.089 µM | Average slope of the Hill fit, NavMs, HEK cells (NavMs [2]; value in parentheses, error SD): 1.09 ± 0.1
Molecule: CC/C(=C(\c1ccc(O)cc1)c1ccc(OCCNC)cc1)c1ccccc1 [Endoxifen]

Average slope of the Hill fit, NaV1.2, HEK cells (hNav1.2): 3.2 ± 0.12 μM (0.96 ± 0.1) | IC50 (hNav1.2; read-out: Potency of sodium current inhibition (IC50), NaV1.2, HEK cells): 3.2 µM | Average slope of the Hill fit, NavMs, HEK cells (NavMs [2]): 1.1 ± 0.16 μM (1.11 ± 0.1) | IC50 (NavMs [2]; read-out: Potency of sodium current inhibition (IC50), NavMs, HEK cells): 1.1 µM
Molecule: CC/C(=C(\c1ccccc1)c1ccc(OCCNC)cc1)c1ccccc1 [NM-Tam, N-desmethyltamoxifen]
Affinity for ER, times lower than that of tamoxifen (ER): ~100 times

Average slope of the Hill fit, NaV1.2, HEK cells (hNav1.2): 2.4 ± 0.11 μM (1.05 ± 0.1) | IC50 (hNav1.2): 2.4 µM
Molecule: CC/C(=C(\c1ccccc1)c1ccc(OCCN(C)C)cc1)c1ccccc1 [Tamoxifen]

Molecule: CC/C(=C(\c1ccc(O)cc1)c1ccc(OCCN(C)C)cc1)c1ccccc1.Cl [Z-4OH-Tam, Z-4-Hydroxytamoxifen hydrochloride]
Average slope of the Hill fit, NaV1.2, HEK cells (hNav1.2; value in parentheses, error SD): 0.95 ± 0.1 | Average slope of the Hill fit, NavMs, HEK cells (NavMs [2]; value in parentheses, error SD): 1.05 ± 0.1

stoichiometry N [7]: 4
Molecule: NavMs F208L mutant (NavMsL) (from UniProt A0L5S6 1-274) (natural protein)

Reference: article PMC7980221 (Molecular Cell, 2021)
